Results taken from patent publication US20240425491A1, “HETEROARYL COMPOUNDS USEFUL IN THE TREATMENT OF COGNITIVE DISORDERS” (University College Cardiff Consultants Limited, priority 2021, published 2024).

Legend:
[1] = target: T1, human α5β3γ2L GABAA receptors in HEK293 cells (Homo sapiens, UniProt P18507+P31644); assay: In vitro electrophysiological recording assay (α5-GABAAR relative efficacy), SyncroPatch; format: cell-based; conditions: Conc 0.1 μM; GABA EC10-20
T1 construct: expressed in transfected cells
Text: Mouse L(tk^−) cells stably expressing human α1β3γ2, α2β3γ2, α3β3γ2, α5β3γ2 GABAARs generated by transfection of the individual subunits in the dexamethasone-inducible expression vector pMSGneo in mouse L(tk^−) cells (Hadingham et al., 1993, Mol. Pharmacol. 43:970-975 and 1993, Mol. Pharmacol. 44:1211-1218) were used for binding and functional assays. For certain compounds, HEK293 cells stable expressing the human α1β3γ2L, α2β3γ2L, α3β3γ2L and α5β3γ2L GABAA receptors were used to evaluate their functional effects in a SyncroPatch electrophysiology assay.
The efficacy of modulators was evaluated using either the automated patch-clamp platform QPatch16 (Sophion, Copenhagen, Denmark) or the SyncroPatch 384i (Nanion Technologies, Germany). Cells were harvested from flasks by enzymatic dissociation and re-suspended in serum-free medium.
For the Syncropatch recordings, a stacked addition protocol was used, in which GABA was rapidly applied and then washed off from the cell. All experiments were carried out at room temperature (20-22° C.) using a standard whole cell procedure. The currents recorded were acquired at 2 kHz and filtered using a Bessel filter. Whole-cell currents were measured at a holding potential of −80 mV.
For Syncropatch recordings, the extracellular recording solution contained: 140 mM NaCl, 4 mM KCl, 2 mM CaCl2), 1 mM MgCl2, 10 mM HEPES, 5 mM glucose (pH 7.4 and osmolarity of c. 300-310 mOsm/L). The intracellular recording solution contained: 90 mM KCl, 50 mM KF, 1.5 mM MgCl2, 11.1 mM EGTA and 10 mM HEPES (pH 7.2 and osmolarity of c. 300 mOsm/L). 2 mM of NaATP was added to the intracellular solution on the day of testing.
The effects of modulators were evaluated in the presence of a submaximal GABA concentration, giving typically 10-20% activation (GABA EC10-20) of the response elicited by a saturating GABA concentration. For QPatch recordings, to check and ensure baseline current stability before compound addition, five consecutive applications of GABA EC10-20 alone (each application with a 2 s duration, separated by minimum 1 min wash off periods) were performed before compound addition. The test compound was applied using the pipetting system of the QPatch system 1 min at least prior to co-application with GABA EC10-20. For SyncroPatch recordings, GABA EC20 alone was applied three times (1 s long applications, with wash steps in-between) before compound addition. This was followed by a 1-2 min pre-incubation with the test compound and then re-application of GABA EC10-20 in the presence of the compound. Finally, following a further wash step, a saturating concentration of GABA was applied, allowing the accurate evaluation for each cell of the percentage baseline activation elicited by the submaximal GABA applied.
The compounds were first dissolved in DMSO as a 10 mM stock and then further diluted to the testing concentrations so that the final DMSO concentration in the extracellular recording solution was kept constant at 0.1% for the QPatch recordings, or 0.2% for the SyncroPatch recordings.
The % efficacy of modulators was determined from the GABA elicited currents recorded in the presence and absence of the test compound, using the formula:
[((compound peak current−leak)−(GABA peak current−leak))/(GABA peak current−leak)]*100,
where ‘leak’ is the leak baseline current at −65 mV, ‘compound peak current’ is the current elicited by co-application of compound and GABA, and ‘GABA peak current’ is the current elicited by GABA alone during the 5th GABA application. The results were presented as ‘relative efficacy’ for each compound generally at a concentration equal or higher than 100 times their determined Ki. The relative efficacy of a compound was calculated by normalising its efficacy to the efficacy of methyl-6,7-dimethoxy-4-ethyl-beta-carboline-3-carboxylate (DMCM) that was separately determined produced an attenuation of GABA-induced currents of −57±4%, n=5.

[2] = target: T2, human α5β3γ2 GABAARs in mouse L(tk−) cells (Homo sapiens, UniProt P18507+P31644); assay: In vitro electrophysiological recording assay (α5-GABAAR relative efficacy), QPatch; format: cell-based; conditions: GABA EC10-20
T2 construct: expressed in transfected cells; host or cells: mouse L(tk−) cells, dexamethasone-inducible vector pMSGneo
How it was run: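 Whole-cell QPatch recordings at 20-22° C, −65 mV holding, in dexamethasone-induced (1 μM, 24 h) L(tk−) cells. Compound pre-applied ≥1 min, then co-applied with GABA EC10-20; percentage change in leak-corrected peak current, taken at ≥100× Ki, normalised to DMCM efficacy; 0.1% DMSO final.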

[3] = target: T3, human recombinant GABAAR containing α5β3γ2 subunits (benzodiazepine site) (Homo sapiens, UniProt P18507+P31644); assay: In vitro radioligand binding assay (α5-GABAAR Ki); conditions: inhibition of [3H]Ro15-1788 binding, membranes of L(tk−) cells expressing human α5β3γ2; read-out: α5-GABAAR Ki
T3 construct: expressed in transfected cells; host or cells: mouse L(tk−) cells, dexamethasone-inducible vector pMSGneo
How it was run: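 Displacement of 4 nM [^3H]flumazenil from the benzodiazepine site, read by filtration and scintillation, gave IC50, converted to Ki (Cheng-Prusoff, saturation-derived Kd). Receptor: human α5β3γ2 membranes from L(tk^−) cells, 50 μg protein/well; 1 h, 4° C; TP003 1 μM defined nonspecific binding.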

T1 sequence (P31644 32-462): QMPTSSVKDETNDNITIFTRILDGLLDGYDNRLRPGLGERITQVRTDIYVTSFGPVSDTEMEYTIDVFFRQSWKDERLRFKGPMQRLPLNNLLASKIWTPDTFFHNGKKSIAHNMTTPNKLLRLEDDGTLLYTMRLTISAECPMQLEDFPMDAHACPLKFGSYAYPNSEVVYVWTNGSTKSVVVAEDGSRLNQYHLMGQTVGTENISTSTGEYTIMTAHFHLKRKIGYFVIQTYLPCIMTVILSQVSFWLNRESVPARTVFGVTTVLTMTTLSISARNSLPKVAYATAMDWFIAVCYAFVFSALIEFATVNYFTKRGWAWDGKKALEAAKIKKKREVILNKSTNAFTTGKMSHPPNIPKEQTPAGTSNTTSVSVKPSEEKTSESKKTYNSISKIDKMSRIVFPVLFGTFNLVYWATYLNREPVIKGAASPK
T1 sequence (P28472 26-473 partner): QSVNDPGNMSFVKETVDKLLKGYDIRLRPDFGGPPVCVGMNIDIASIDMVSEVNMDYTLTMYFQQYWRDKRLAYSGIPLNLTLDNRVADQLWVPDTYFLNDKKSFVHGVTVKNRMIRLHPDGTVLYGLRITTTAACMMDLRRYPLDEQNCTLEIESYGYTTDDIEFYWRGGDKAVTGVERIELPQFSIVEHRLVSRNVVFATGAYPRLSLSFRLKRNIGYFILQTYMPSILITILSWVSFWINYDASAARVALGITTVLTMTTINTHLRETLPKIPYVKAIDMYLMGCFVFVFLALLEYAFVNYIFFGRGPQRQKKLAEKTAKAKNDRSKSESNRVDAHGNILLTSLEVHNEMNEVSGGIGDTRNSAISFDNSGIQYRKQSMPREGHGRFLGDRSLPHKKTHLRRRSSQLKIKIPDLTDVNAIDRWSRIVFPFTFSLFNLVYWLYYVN
T1 sequence (P18507 40-475): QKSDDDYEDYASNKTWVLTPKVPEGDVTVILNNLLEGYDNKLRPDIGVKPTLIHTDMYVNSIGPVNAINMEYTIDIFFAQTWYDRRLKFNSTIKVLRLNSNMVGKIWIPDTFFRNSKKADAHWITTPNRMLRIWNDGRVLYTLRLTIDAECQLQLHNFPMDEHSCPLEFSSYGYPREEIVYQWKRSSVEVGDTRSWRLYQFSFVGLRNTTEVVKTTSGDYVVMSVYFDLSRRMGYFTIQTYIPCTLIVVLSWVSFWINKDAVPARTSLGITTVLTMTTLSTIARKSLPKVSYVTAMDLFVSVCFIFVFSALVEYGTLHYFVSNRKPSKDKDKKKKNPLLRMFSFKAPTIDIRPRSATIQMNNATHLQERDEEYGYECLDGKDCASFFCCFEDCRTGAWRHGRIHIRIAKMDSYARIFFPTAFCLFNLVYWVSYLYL
T2 sequence (P31644 32-462): as the sequence (P31644 32-462) above
T2 sequence (P28472 26-473 partner): as the sequence (P28472 26-473 partner) above
T2 sequence (P18507 40-475): as the sequence (P18507 40-475) above
T3 sequence (P31644 32-462): as the sequence (P31644 32-462) above
T3 sequence (P28472 26-473 partner): as the sequence (P28472 26-473 partner) above
T3 sequence (P18507 40-475): as the sequence (P18507 40-475) above

Row | SMILES | α5-GABAAR Relative Efficacy (to DMCM), SyncroPatch [1] | α5-GABAAR Relative Efficacy (to DMCM), Qpatch ([2]; Conc 1 μM) | Ki [3] [nM] | α5-GABAAR Relative Efficacy (to DMCM), Qpatch ([2]; Conc 0.1 μM) | α5-GABAAR Relative Efficacy (to DMCM), Qpatch ([2]; Conc 0.3 μM)
1 | COc1nc(-c2cnn(C)c2)ccc1NC(=O)c1c(-c2ccccc2)noc1C [Example 4, N-[2-Methoxy-6-(1-methylpyrazol-4-yl)-3-pyridyl]-5-methyl-3-phenyl-isoxazole-4-carboxamide] | −0.36 | −0.68 | 29.7 | – | –
2 | COc1nc(-c2cnc(N)nc2)ccc1NC(=O)c1c(-c2ccccc2)noc1C [Example 43, N-[6-(2-Aminopyrimidin-5-yl)-2-methoxy-3-pyridyl]-5-methyl-3-phenyl-isoxazole-4-carboxamide] | −0.90 | – | 0.5 | −0.76 | –
3 | CNc1ncc(-c2ccc(NC(=O)c3c(-c4ccccc4)noc3C)c(OC)n2)cn1 [Example 47, N-[2-Methoxy-6-[2-(methylamino)pyrimidin-5-yl]-3-pyridyl]-5-methyl-3-phenyl-isoxazole-4-carboxamide] | −1.00 | – | 0.8 | −0.81 | –
4 | COc1nc(-c2cnc(C(F)(F)F)nc2)ccc1NC(=O)c1c(-c2ccccc2)noc1C [Example 53, N-[2-Methoxy-6-[2-(trifluoromethyl)pyrimidin-5-yl]-3-pyridyl]-5-methyl-3-phenyl-isoxazole-4-carboxamide] | −0.83 | – | 2.4 | – | −0.92
5 | COc1nc(-c2cnc(N)cn2)ccc1NC(=O)c1c(-c2ccccc2)noc1C.Cl [Example 55, N-[6-(5-Aminopyrazin-2-yl)-2-methoxy-3-pyridyl]-5-methyl-3-phenyl-isoxazole-4-carboxamide hydrochloride] | −0.93 | −0.92 | 3.4 | – | –
6 | COc1nc(-c2cnc(N)nc2)cnc1NC(=O)c1c(-c2ccccc2)noc1C [Example 67, N-[5-(2-Aminopyrimidin-5-yl)-3-methoxy-pyrazin-2-yl]-5-methyl-3-phenyl-isoxazole-4-carboxamide] | −1.14 | – | 0.6 | −0.94 | –
7 | COc1nc(-c2ccc(CN3CC4COCC(C4)C3)cc2)ccc1NC(=O)c1c(-c2ccccc2)noc1C [Example 228, N-[2-methoxy-6-[4-(3-oxa-7-azabicyclo[3.3.1]nonan-7-ylmethyl)phenyl]-3-pyridyl]-5-methyl-3-phenyl-isoxazole-4-carboxamide] | −0.68 | – | 1.3 | – | –
8 | COc1nc(-c2cnoc2)ncc1NC(=O)c1c(-c2ccccc2)noc1C [Example 229, N-(2-isoxazol-4-yl-4-methoxy-pyrimidin-5-yl)-5-methyl-3-phenyl-isoxazole-4-carboxamide] | −0.79 | – | 87.4 | – | –
9 | COc1nc(-c2ccc(CN3CCOCC3)nc2)ccc1NC(=O)c1c(-c2ccccc2)noc1C [Example 230, N-(6-methoxy-6′-(morpholinomethyl)-[2,3′-bipyridin]-5-yl)-5-methyl-3-phenyl-isoxazole-4-carboxamide] | −1.10 | – | 1.4 | – | –
10 | COc1nc(-c2ccc(CN3CC4(COC4)C3)nc2)ccc1NC(=O)c1c(-c2ccccc2)noc1C [Example 231, N-(6′-((2-oxa-6-azaspiro[3.3]heptan-6-yl)methyl)-6-methoxy-[2,3′-bipyridin]-5-yl)-5-methyl-3-phenylisoxazole-4-carboxamide] | −1.00 | – | 1.3 | – | –
11 | COc1nc(-c2ccc(CN3CC4COCC(C4)C3)nc2)ccc1NC(=O)c1c(-c2ccccc2)noc1C [Example 232, N-(6′-((3-oxa-7-azabicyclo[3.3.1]nonan-7-yl)methyl)-6-methoxy-[2,3′-bipyridin]-5-yl)-5-methyl-3-phenylisoxazole-4-carboxamide] | −0.73 | – | 0.6 | – | –
